For 28 compounds, EC50 results are on record in patent publication US8785488B2 (Exelixis Patent Company LLC, priority 2009, dated 2014).

The structures appear in SMILES notation. Read-outs that look alike come from different tables or passages of the source. Where only a bound is given, the exact number is not on record here.

One may read the EC50 as the concentration needed to bring the measured effect to its halfway point.

This test deals with T1, human TGR5 (h-TGR5) (Homo sapiens, UniProt Q8TDU6).
T1 construct: expressed in transfected cells
T1 sequence (Q8TDU6 1-330): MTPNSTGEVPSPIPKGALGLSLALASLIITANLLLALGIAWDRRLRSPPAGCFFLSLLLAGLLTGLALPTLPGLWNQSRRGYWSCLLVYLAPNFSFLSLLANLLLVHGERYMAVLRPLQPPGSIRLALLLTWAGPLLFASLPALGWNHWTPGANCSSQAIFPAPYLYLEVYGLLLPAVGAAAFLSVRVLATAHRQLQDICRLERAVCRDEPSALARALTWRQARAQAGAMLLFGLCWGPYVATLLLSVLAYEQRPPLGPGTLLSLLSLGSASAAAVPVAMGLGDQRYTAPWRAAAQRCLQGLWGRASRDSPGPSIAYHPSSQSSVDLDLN
In words: TGR5/CRE-Luciferiase Assay (HEK 293 hTGR5/CRE-Luc cells). It is filed as cell-based. As for the experimental part: Compounds were serially diluted in DMEM containing 5% DMSO and 5 μL of compound or media alone was transferred to each well and plates were incubated for 6 hours. Following incubation, 30 μL of lysis/luciferase buffer was added to each well. The luciferase activity was then measured on the EnVision™ plate reader and the dose response data was analyzed using ActivityBase.
In the following tables, EC50 values determined according to the TGR5 cAMP Assay described herein (cAMP); EC50 values determined according to the TGR5/CRE-Luciferiase Assay described herein (CRE-Luc). […] The following compounds in Tables 1 and 2 were made by using procedures described in the above Schemes and Examples, and, where applicable, by making any necessary substitutions of known materials that one skilled in the art would ordinarily understand how to do.

Where [1] appears, read: h-TGR5 CRE-Luc EC50, Table 1, read-out: CRE-Luc (EC50).

Consider `CC(C)(c1ccc(Cl)c(Cl)c1)c1cnc(COc2ccc(C(N)=O)c(Cl)c2)n1-c1ccc(F)cc1` [2-chloro-4-[({5-[1-(3,4-dichlorophenyl)-1-methylethyl]-1-(4-fluorophenyl)-1H-imidazol-2-yl}methyl)oxy]benzamide], for which the EC50 under setting [1] lay within 1000 to 10000 nM.

As to `CC(C)(c1ccc(Cl)c(O)c1)c1cnc(SCc2c(F)cccc2Cl)n1-c1ccc(F)cc1` [2-chloro-5-{1-[2-{[(2-chloro-6-fluorophenyl)methyl]thio}-1-(4-fluorophenyl)-1H-imidazol-5-yl]-1-methylethyl}phenol], under setting [1], the concentration giving a half-maximal response (EC50) was less than 100 nM.

Turning to `CC(C)(c1ccc(Cl)c(Cl)c1)c1cnc(SCc2ccc(S(N)(=O)=O)c(F)c2)n1-c1ccc(F)cc1` [4-[({5-[1-(3,4-dichlorophenyl)-1-methylethyl]-1-(4-fluorophenyl)-1H-imidazol-2-yl}thio)methyl}-2-fluorobenzenesulfonamide], the half-maximal effective concentration (EC50) under setting [1] is 100 to 1000 nM.

For `COc1ccc(C(C)(C)c2cnc(CNc3ccc(F)c(Cl)c3)n2-c2ccc(F)cc2)cc1OC` [N-{[5-{1-[3,4-bis(methyloxy)phenyl]-1-methylethyl}-1-(4-fluorophenyl)-1H-imidazol-2-yl]methyl}-3-chloro-4-fluoroaniline], the 50% effective concentration (EC50) under setting [1] lay within 100 to 1000 nM.

As to `CC1CCc2cc(F)ccc2N1S(=O)(=O)c1ncc(C(C)(C)c2ccc(Cl)c(Cl)c2)n1-c1ccc(F)cc1` (stereo not shown) [1-({5-[1-(3,4-dichlorophenyl)-1-methylethyl]-1-(4-fluorophenyl)-1H-imidazol-2-yl}sulfonyl)-6-fluoro-2-methyl-1,2,3,4-tetrahydroquinoline], the concentration giving a half-maximal response (EC50) under setting [1] was in the range of 1000 to 10000 nM.

`Fc1ccc(-n2c(Cc3ccc(Cl)c(F)c3)nnc2SCc2c(F)cccc2Cl)cc1` [Example 38]: for the setting “HEK 293 hTGR5/CRE-Luc cells, 6 hours incubation, luciferase activity, Table 2, read-out: h-TGR5CRE-Luc EC50 (CRE-Luc)”, the EC50 was in the range of 100 to 1000 nM.

For the compound `COc1ccc(C(C)(C)c2cnc(C(=O)N(C)c3c(F)cccc3Cl)n2-c2ccc(F)cc2)cc1OC` [5-{1-[3,4-bis(methyloxy)phenyl]-1-methylethyl}-N-(2-chloro-6-fluorophenyl)-1-(4-fluorophenyl)-N-methyl-1H-imidazole-2-carboxamide], the half-maximal effective concentration (EC50) under setting [1] lay in the range of 1000 to 10000 nM.

`CC(C)(O)c1ccc(C(C)(C)c2cnc(SCc3ccc(F)cc3Cl)n2-c2ccc(F)cc2)cc1Cl` [2-(2-chloro-4-{1-[2-{[(2-chloro-4-fluorophenyl)methyl]thio}-1-(4-fluorophenyl)-1H-imidazol-5-yl]-1-methylethyl}phenyl)propan-2-ol]: under setting [1], the EC50 is 100 to 1000 nM.

In the case of `CN1CCN(c2ccc(CSc3ncc(C(C)(C)c4ccc(Cl)c(Cl)c4)n3-c3ccc(F)cc3)cc2Cl)CC1` [1-{2-chloro-4-[({5-[1-(3,4-dichlorophenyl)-1-methylethyl]-1-(4-fluorophenyl)-1H-imidazol-2-yl}thio)methyl]phenyl}-4-methylpiperazine], the concentration for a half-maximal effect (EC50) under setting [1] lay within 1000 to 10000 nM.

Regarding `COc1ccc(C(C)(C)c2cnc(C(=O)NC3CCCCC3)n2-c2ccc(F)cc2)cc1OC` [5-{1-[3,4-bis(methyloxy)phenyl]-1-methylethyl}-N-cyclohexyl-1-(4-fluorophenyl)-1H-imidazole-2-carboxamide], the EC50 under setting [1] lay in the range of 1000 to 10000 nM.

Take `CC(C)(O)c1cccc(F)c1CSc1ncc(C(C)(C)c2ccc(Cl)c(Cl)c2)n1-c1ccc(F)cc1` [2-{2-[({5-[1-(3,4-dichlorophenyl)-1-methylethyl]-1-(4-fluorophenyl)-1H-imidazol-2-yl}thio)methyl]-3-fluorophenyl}propan-2-ol]: under setting [1], the EC50 is 100 to 1000 nM.

With `COc1ccc(C(C)(C)c2cnc(SCc3ccc(F)cc3Cl)n2-c2ccc(F)cc2)cc1Cl` [2-{[(2-chloro-4-fluorophenyl)methyl]thio}-5-{1-[3-chloro-4-(methyloxy)phenyl]-1-methylethyl}-1-(4-fluorophenyl)-1H-imidazole], the EC50 under setting [1] is less than 100 nM.

On to `CC(C)(c1ccc(Cl)c(Cl)c1)c1cnc(SCc2cc(C(N)=O)ccc2Cl)n1-c1ccc(F)cc1` [4-chloro-3-[({5-[1-(3,4-dichlorophenyl)-1-methylethyl]-1-(4-fluorophenyl)-1H-imidazol-2-yl}thio)methyl]benzamide], for which the EC50 under setting [1] was 100 to 1000 nM.

In the case of `COc1cc(C(C)(C)c2cnc(SCC3CCN(CC(=O)O)CC3)n2-c2ccc(F)cc2)ccc1Cl` [[4-({[5-{1-[4-chloro-3-(methyloxy)phenyl]-1-methylethyl}-1-(4-fluorophenyl)-1H-imidazol-2-yl]thio}methyl)piperidin-1-yl]acetic acid], under setting [1], the EC50 was 1000 to 10000 nM.

As for `CC(C)(c1ccc(Cl)c(OCCCO)c1)c1cnc(SCc2c(F)cccc2Cl)n1-c1ccc(F)cc1` [3-[(2-chloro-5-{1-[2-{[(2-chloro-6-fluorophenyl)methyl]thio}-1-(4-fluorophenyl)-1H-imidazol-5-yl]-1-methylethyl}phenyl)oxy]propan-1-ol], the EC50 under setting [1] was 100 to 1000 nM.

With `CC(C)(c1ccc(Cl)c(OCCN2CCOCC2)c1)c1cnc(SCc2c(F)cccc2Cl)n1-c1ccc(F)cc1` [4-{2-[(2-chloro-5-{1-[2-{[(2-chloro-6-fluorophenyl)methyl]thio}-1-(4-fluorophenyl)-1H-imidazol-5-yl]-1-methylethyl}phenyl)oxy]ethyl}morpholine], the EC50 under setting [1] was 100 to 1000 nM.

Turning to `CN(C)CCOc1ccc(C(C)(C)c2cnc(SCc3c(F)cccc3Cl)n2-c2ccc(F)cc2)cc1` [2-[(4-{1-[2-{[(2-chloro-6-fluorophenyl)methyl]thio}-1-(4-fluorophenyl)-1H-imidazol-5-yl]-1-methylethyl}phenyl)oxy]-N,N-dimethylethanamine], the EC50 under setting [1] was 1000 to 10000 nM.

As to `CC(C)(c1ccc(Cl)c(Cl)c1)c1cnc(SCc2c(F)cccc2Cl)n1-c1ccc(Cl)c(Cl)c1` [2-{[(2-chloro-6-fluorophenyl)methyl]thio)-1-(3,4-dichlorophenyl)-5-[1-(3,4-dichlorophenyl)-1-methylethyl]-1H-imidazole], the EC50 under setting [1] lay within 100 to 1000 nM.

Consider `CN(C)CCn1c(C(C)(C)c2ccc(Cl)c(Cl)c2)cnc1SCc1c(F)cccc1Cl` [2-(2-{[(2-chloro-6-fluorophenyl)methyl]thio}-5-[1-(3,4-dichlorophenyl)-1-methylethyl]-1H-imidazol-1-yl)-N,N-dimethylethanamine], for which the EC50 under setting [1] is 1000 to 10000 nM.

For `COc1ccc(C(C)(C)c2cnc(C(=O)N3CCOCC3)n2-c2ccc(F)cc2)cc1OC` [4-{[5-{1-[3,4-bis(methyloxy)phenyl]-1-methylethyl}-1-(4-fluorophenyl)-1H-imidazol-2-yl]carbonyl}morpholine], the EC50 under setting [1] lay in the range of 1000 to 10000 nM.

For `CC(C)(c1ccc(S(C)(=O)=O)cc1)c1cnc(SCc2ccc(S(=O)(=O)NC(=O)NN3CCCC3)cc2Cl)n1-c1ccc(F)cc1` [3-chloro-4-({[1-(4-fluorophenyl)-5-{1-methyl-1-[4-(methylsulfonyl)phenyl]ethyl}-1H-imidazol-2-yl]thio}methyl)-N-[(pyrrolidin-1-ylamino)carbonyl]benzenesulfonamide], the half-maximal effective concentration (EC50) under setting [1] lay within 1000 to 10000 nM.

Take `CC(C)(c1ccc(Cl)c(Cl)c1)c1cnc(SCc2ccc(F)cc2C#N)n1-c1ccc(F)cc1` [2-[({5-[1-(3,4-dichlorophenyl)-1-methylethyl]-1-(4-fluorophenyl)-1H-imidazol-2-yl}thio)methyl]-5-fluorobenzonitrile]: the EC50 under setting [1] lay in the range of 100 to 1000 nM.

`CC(C)(c1ccc(Cl)c(Cl)c1)c1nc(CSc2ccc(F)cc2Cl)cn1-c1ccc(F)cc1` [4-{[(2-chloro-4-fluorophenyl)thio]methyl}-2-[1-(3,4-dichlorophenyl)-1-methylethyl]-1-(4-fluorophenyl)-1H-imidazole]: the EC50 under setting [1] lay within 1000 to 10000 nM.

`CC(C)(c1ccc(Cl)c(Cl)c1)c1cnc(S(=O)(=O)NCc2ccc(C(F)(F)F)cc2F)n1-c1ccc(F)cc1` [5-[1-(3,4-dichlorophenyl)-1-methylethyl]-1-(4-fluorophenyl)-N-{[2-fluoro-4-(trifluoromethyl)phenyl]methyl}-1H-imidazole-2-sulfonamide]: under setting [1], the EC50 is 100 to 1000 nM.

On to `CC(C)(c1ccc(Cl)c(Cl)c1)c1cnc(SCc2ccc(F)c(C(=O)NCCN3CCOCC3)c2)n1-c1ccc(F)cc1` [5-[({5-[1-(3,4-dichlorophenyl)-1-methylethyl]-1-(4-fluorophenyl)-1H-imidazol-2-yl}thio)methyl]-2-fluoro-N-(2-morpholin-4-ylethyl)benzamide], for which the EC50 under setting [1] is 100 to 1000 nM.

For the compound `COc1ccc(C(C)(C)c2cnc(SCc3c(F)cc(-c4nnn[nH]4)cc3F)n2-c2ccc(F)cc2)cc1Cl` [5-[4-({[5-{1-[3-chloro-4-(methyloxy)phenyl]-1-methylethyl}-1-(4-fluorophenyl)-1H-imidazol-2-yl]thio}methyl)-3,5-difluorophenyl]-1H-tetrazole], the EC50 under setting [1] is less than 100 nM.

Regarding `COc1c(Cl)cc(C(C)(C)c2cnc(SCc3ccc(S(N)(=O)=O)cc3Cl)n2-c2ccc(F)cc2)cc1Cl` [3-chloro-4-({[5-{1-[3,5-dichloro-4-(methyloxy)phenyl]-1-methylethyl}-1-(4-fluorophenyl)-1H-imidazol-2-yl]thio}methyl)benzenesulfonamide], under setting [1], the EC50 was less than 100 nM.

As to `CC(C)(c1ccc(Cl)c(Cl)c1)c1cnc(SCc2ccc(C(=O)NCCN3CCOCC3)cc2F)n1-c1ccc(F)cc1` [4-[({5-[1-(3,4-dichlorophenyl)-1-methylethyl]-1-(4-fluorophenyl)-1H-imidazol-2-yl}thio)methyl]-3-fluoro-N-(2-morpholin-4-ylethyl)benzamide], the EC50 under setting [1] was 100 to 1000 nM.
